Test results taken from PubChem BioAssay AID212 (DTP/NCI, 2004).
Results filed as inconclusive are left out.

Tested on: BDF1 mice, colon carcinoma 38 sc, T/C %
Assay: NCI In Vivo Anticancer Drug Screen. Data for tumor model Colon Carcinoma 38 (subcutaneous) in B6D2F1 (BDF1) mice
Outline: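 Mice with transplanted tumors are treated with compound or vehicle. Survival or tumor size is then measured in both groups. The ratio of treated to control gives the reported figure.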

[1] = endpoint: median tumor weight (est.), dose: 25.0 mg/kg/injection, schedule: Q07DX002 (ip), vehicle: saline with Tween-80, higher = larger tumour
[2] = endpoint: median tumor weight (est.), dose: 400.0 mg/kg/injection, schedule: Q07DX002 (ip), vehicle: saline with Tween-80, higher = larger tumour

O=c1[nH]cccc1O
T/C (endpoint: median tumor weight (est.), dose: 32.0 mg/kg/injection, schedule: Q07DX002 (ip), vehicle: saline with Tween-80, higher = larger tumour): 101 % of control | T/C (endpoint: median tumor weight (est.), dose: 62.0 mg/kg/injection, schedule: Q07DX002 (ip), vehicle: saline with Tween-80, higher = larger tumour): 177 % of control | T/C (endpoint: median tumor weight (est.), dose: 62.5 mg/kg/injection, schedule: Q07DX002 (ip), vehicle: saline with Tween-80, higher = larger tumour): 100 % of control | T/C (endpoint: median tumor weight (est.), dose: 64.0 mg/kg/injection, schedule: Q07DX002 (ip), vehicle: saline with Tween-80, higher = larger tumour): 76 % of control | T/C (endpoint: median tumor weight (est.), dose: 125.0 mg/kg/injection, schedule: Q07DX002 (ip), vehicle: saline with Tween-80, higher = larger tumour): 87 % of control | T/C (endpoint: median tumor weight (est.), dose: 128.0 mg/kg/injection, schedule: Q07DX002 (ip), vehicle: saline with Tween-80, higher = larger tumour): 94 % of control | T/C (endpoint: median tumor weight (est.), dose: 250.0 mg/kg/injection, schedule: Q07DX002 (ip), vehicle: saline with Tween-80, higher = larger tumour): 87 % of control | T/C (endpoint: median tumor weight (est.), dose: 256.0 mg/kg/injection, schedule: Q07DX002 (ip), vehicle: saline with Tween-80, higher = larger tumour): 58 % of control | T/C (endpoint: median tumor weight (est.), dose: 512.0 mg/kg/injection, schedule: Q07DX002 (ip), vehicle: saline with Tween-80, higher = larger tumour): 20 % of control

CCCCCCCC(=O)OCC(=O)[C@]1(O)Cc2c(O)c3c(c(O)c2[C@@H](OC2CC(N)C(O)C(C)O2)C1)C(=O)c1c(OC)cccc1C3=O (some centres undefined)
T/C (endpoint: median tumor weight (est.), dose: 2.0 mg/kg/injection, schedule: Q07DX002 (ip), vehicle: suspension in saline, higher = larger tumour): 75 % of control | T/C (endpoint: median tumor weight (est.), dose: 4.0 mg/kg/injection, schedule: Q07DX002 (ip), vehicle: suspension in saline, higher = larger tumour): 70 % of control | T/C (endpoint: median tumor weight (est.), dose: 8.0 mg/kg/injection, schedule: Q07DX002 (ip), vehicle: suspension in saline, higher = larger tumour): 37 % of control

CCC(CC)COC(=O)c1ccccc1C(=O)OCC(CC)CC
T/C [1]: 71 % of control | T/C (endpoint: median tumor weight (est.), dose: 50.0 mg/kg/injection, schedule: Q07DX002 (ip), vehicle: saline with Tween-80, higher = larger tumour): 92 % of control | T/C [2]: 122 % of control

COc1cc(NCc2ccc3nc(N)nc(N)c3c2C)cc(OC)c1OC
T/C (endpoint: median survival time, dose: 5.2 mg/kg/injection, schedule: Q04HX021 (ip), vehicle: sodium bicarbonate, higher = longer survival): 183 % of control | T/C (endpoint: median survival time, dose: 5.9 mg/kg/injection, schedule: Q06HX014 (ip), vehicle: sodium bicarbonate, higher = longer survival): 120 % of control | T/C (endpoint: median survival time, dose: 8.4 mg/kg/injection, schedule: Q04HX021 (ip), vehicle: sodium bicarbonate, higher = longer survival): 194 % of control | T/C (endpoint: median survival time, dose: 8.8 mg/kg/injection, schedule: Q06HX012 (oral), vehicle: sodium bicarbonate, higher = longer survival): 116 % of control | T/C (endpoint: median survival time, dose: 8.8 mg/kg/injection, schedule: Q06HX014 (ip), vehicle: sodium bicarbonate, higher = longer survival): 175 % of control | T/C (endpoint: median survival time, dose: 20.0 mg/kg/injection, schedule: Q06HX012 (oral), vehicle: sodium bicarbonate, higher = longer survival): 177 % of control | T/C (endpoint: median survival time, dose: 67.0 mg/kg/injection, schedule: Q07DX002 (ip), vehicle: sodium bicarbonate, higher = longer survival): 157 % of control | T/C (endpoint: median tumor weight (est.), dose: 1.88 mg/kg/injection, schedule: Q07DX002 (ip), vehicle: sodium bicarbonate, higher = larger tumour): 152 % of control | T/C (endpoint: median tumor weight (est.), dose: 12.5 mg/kg/injection, schedule: Q07DX002 (ip), vehicle: water, higher = larger tumour): 121 % of control | T/C (endpoint: median tumor weight (est.), dose: 25.0 mg/kg/injection, schedule: Q07DX002 (ip), vehicle: water, higher = larger tumour): 109 % of control | T/C (endpoint: median tumor weight (est.), dose: 50.0 mg/kg/injection, schedule: Q07DX002 (ip), vehicle: water, higher = larger tumour): 109 % of control | T/C (endpoint: median tumor weight (est.), dose: 53.0 mg/kg/injection, schedule: Q07DX002 (ip), vehicle: water, higher = larger tumour): 85 % of control | T/C (endpoint: median tumor weight (est.), dose: 66.0 mg/kg/injection, schedule: Q07DX002 (ip), vehicle: water, higher = larger tumour): 90 % of control | T/C (endpoint: median tumor weight (est.), dose: 70.0 mg/kg/injection, schedule: Q07DX002 (ip), vehicle: water, higher = larger tumour): 120 % of control | T/C (endpoint: median tumor weight (est.), dose: 80.0 mg/kg/injection, schedule: Q07DX002 (ip), vehicle: water, higher = larger tumour): 82 % of control | T/C (endpoint: median tumor weight (est.), dose: 99.0 mg/kg/injection, schedule: Q07DX002 (ip), vehicle: water, higher = larger tumour): 87 % of control | T/C (endpoint: median tumor weight (est.), dose: 100.0 mg/kg/injection, schedule: Q07DX002 (ip), vehicle: water, higher = larger tumour): 217 % of control | T/C (endpoint: median tumor weight (est.), dose: 105.0 mg/kg/injection, schedule: Q07DX002 (ip), vehicle: water, higher = larger tumour): 82 % of control | T/C (endpoint: median tumor weight (est.), dose: 120.0 mg/kg/injection, schedule: Q07DX002 (ip), vehicle: sodium bicarbonate, higher = larger tumour): 4 % of control | T/C (endpoint: median tumor weight (est.), dose: 120.0 mg/kg/injection, schedule: Q07DX002 (ip), vehicle: water, higher = larger tumour): 83 % of control

COC1=C(OC)C(=O)C(SC/C=C(\C)CCCC(C)CCCC(C)CCCC(C)C)=CC1=O (centres undefined)
T/C [1]: 55 % of control | T/C (endpoint: median tumor weight (est.), dose: 100.0 mg/kg/injection, schedule: Q07DX002 (ip), vehicle: saline with Tween-80, higher = larger tumour): 116 % of control | T/C (endpoint: median tumor weight (est.), dose: 200.0 mg/kg/injection, schedule: Q07DX002 (ip), vehicle: saline with Tween-80, higher = larger tumour): 86 % of control | T/C [2]: 102 % of control

c1csc(C[N+]23CN4CN(CN(C4)C2)C3)c1
T/C (endpoint: median tumor weight (est.), dose: 25.0 mg/kg/injection, schedule: Q07DX002 (ip), vehicle: saline, higher = larger tumour): 77 % of control | T/C (endpoint: median tumor weight (est.), dose: 50.0 mg/kg/injection, schedule: Q07DX002 (ip), vehicle: saline, higher = larger tumour): 108 % of control | T/C (endpoint: median tumor weight (est.), dose: 100.0 mg/kg/injection, schedule: Q07DX002 (ip), vehicle: saline, higher = larger tumour): 81 % of control | T/C (endpoint: median tumor weight (est.), dose: 200.0 mg/kg/injection, schedule: Q07DX002 (ip), vehicle: saline, higher = larger tumour): 97 % of control | T/C (endpoint: median tumor weight (est.), dose: 400.0 mg/kg/injection, schedule: Q07DX002 (ip), vehicle: saline, higher = larger tumour): 112 % of control
